The term IC50 denotes the point on the concentration scale where inhibition reaches its midpoint. A higher IC50 goes with a need for much substance.

Structures are written as SMILES.

The target in this assay is H1047R PIK3CA enzyme (Homo sapiens, UniProt P42336, H1047R). The assay is described as follows: ADP-Glo Biochemical PIK3CA Kinase Assay. As for the experimental part: Compounds to be assayed were plated in 16 doses of 1:2 serial dilutions (20 nL volume each well) on a 1536-well plate, and the plate warmed to room temperature. […] To the well was added 1 μL of 200 μM ATP and 20 μM of diC8-PIP2 in Substrate Assay Buffer (50 mM HEPES pH7.4, 50 mM NaCl, 5 mM DTT and 0.03% CHAPS) to start the reaction, and the plate was shaken for 10 seconds, then spun briefly at 1500 rpm, and then incubated for 60 minutes at room temperature. The reaction was stopped by adding 2 μL of ADP-Glo reagent (Promega), and spinning briefly at 1500 rpm, and then incubating for 40 minutes. ADP-Glo Detection reagent (Promega) was added and the plate spun briefly at 1500 rpm, then incubated for 30 minutes.
Sequence of H1047R PIK3CA enzyme (P42336 whole entry H1047R): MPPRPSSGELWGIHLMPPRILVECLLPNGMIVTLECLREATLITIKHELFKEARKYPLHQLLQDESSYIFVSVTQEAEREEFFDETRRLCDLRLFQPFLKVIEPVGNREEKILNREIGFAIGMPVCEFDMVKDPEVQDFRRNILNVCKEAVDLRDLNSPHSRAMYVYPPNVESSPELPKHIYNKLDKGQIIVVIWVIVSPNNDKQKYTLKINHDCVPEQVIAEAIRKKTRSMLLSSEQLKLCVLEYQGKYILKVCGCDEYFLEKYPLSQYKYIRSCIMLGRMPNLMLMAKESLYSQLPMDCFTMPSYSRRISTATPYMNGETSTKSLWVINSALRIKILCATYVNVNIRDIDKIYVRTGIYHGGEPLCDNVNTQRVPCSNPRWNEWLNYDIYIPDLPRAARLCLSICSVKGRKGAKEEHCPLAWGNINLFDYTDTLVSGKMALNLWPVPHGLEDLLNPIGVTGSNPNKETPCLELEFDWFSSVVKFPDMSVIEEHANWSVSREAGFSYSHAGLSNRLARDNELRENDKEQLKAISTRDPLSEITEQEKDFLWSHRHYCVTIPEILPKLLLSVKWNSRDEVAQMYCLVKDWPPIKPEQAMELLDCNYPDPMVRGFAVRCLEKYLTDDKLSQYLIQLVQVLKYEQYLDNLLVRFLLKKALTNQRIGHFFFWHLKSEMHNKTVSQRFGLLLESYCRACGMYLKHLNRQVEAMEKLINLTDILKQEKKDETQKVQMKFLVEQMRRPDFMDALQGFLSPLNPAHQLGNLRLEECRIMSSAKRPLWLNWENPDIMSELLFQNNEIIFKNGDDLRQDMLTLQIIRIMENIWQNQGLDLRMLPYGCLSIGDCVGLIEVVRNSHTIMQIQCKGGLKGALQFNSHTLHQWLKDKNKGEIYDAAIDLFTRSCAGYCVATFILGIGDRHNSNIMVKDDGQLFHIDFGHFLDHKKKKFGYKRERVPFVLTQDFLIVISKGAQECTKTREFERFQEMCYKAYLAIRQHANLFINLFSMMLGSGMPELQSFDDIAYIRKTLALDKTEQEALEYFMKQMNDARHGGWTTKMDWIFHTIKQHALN
Sequence of H1047R PIK3CA enzyme (P27986 whole entry partner): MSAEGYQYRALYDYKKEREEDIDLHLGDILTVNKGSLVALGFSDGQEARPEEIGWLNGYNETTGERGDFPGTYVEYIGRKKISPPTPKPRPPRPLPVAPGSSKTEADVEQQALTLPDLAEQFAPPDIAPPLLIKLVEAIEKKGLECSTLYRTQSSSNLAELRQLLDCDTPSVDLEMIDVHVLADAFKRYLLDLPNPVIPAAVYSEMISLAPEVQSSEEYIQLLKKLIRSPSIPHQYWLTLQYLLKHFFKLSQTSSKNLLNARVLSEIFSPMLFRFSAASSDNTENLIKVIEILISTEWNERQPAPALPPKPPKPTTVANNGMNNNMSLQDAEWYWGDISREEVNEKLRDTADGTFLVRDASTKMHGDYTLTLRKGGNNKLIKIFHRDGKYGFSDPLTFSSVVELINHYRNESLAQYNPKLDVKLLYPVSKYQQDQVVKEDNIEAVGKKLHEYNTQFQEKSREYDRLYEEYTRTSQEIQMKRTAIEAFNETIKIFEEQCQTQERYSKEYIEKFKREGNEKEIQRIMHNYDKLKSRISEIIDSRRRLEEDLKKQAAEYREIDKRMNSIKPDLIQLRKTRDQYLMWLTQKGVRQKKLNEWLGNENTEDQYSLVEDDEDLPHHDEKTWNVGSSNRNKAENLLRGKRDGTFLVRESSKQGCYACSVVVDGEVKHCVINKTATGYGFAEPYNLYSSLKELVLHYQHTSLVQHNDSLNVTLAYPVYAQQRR
(In general: In ADP-Glo the light output rises with the ADP produced.)
On to `O=C(Nc1cc(Br)cc2c1C(c1cc(F)ccc1Cl)NC2=O)c1cc(C(F)(F)F)cc(F)c1F` (stereo not drawn) [Compound I-908], for which the half-inhibitory concentration (IC50) was 1 to 10 µM.
To `Cc1ccc2c(c1)N(C(=O)Nc1cccc3c1C(c1cc(F)ccc1Cl)NC3=O)CC2` (stereo not drawn) [Compound I-2470] belongs 0.1 to 0.5 µM.
To `O=C1N[C@H](c2cc(F)ccc2Cl)c2c(NC(=O)N3C[C@@](O)(C(F)(F)F)c4cc(F)ccc43)ccc(-n3ccnn3)c21` (single isomer, unassigned) [Compound I-2524] belongs 1 to 10 µM.
Consider `Cn1ncc(Br)c1C(=O)Nc1cccc2c1C(c1cc(F)ccc1Cl)NC2=O` (stereo not drawn) [Compound I-583], for which the IC50 was 10 to 100 µM.
The value for `COC(=O)c1cc(NC(=O)c2nsc3ccccc23)c2c(c1)C(=O)NC2c1ccccc1C` (stereo not drawn) [Compound I-314] was 0.5 to 1 µM.
The value for `N#CCOc1cc(-c2ccc3ncnn3c2)cc2c1C(c1cc(F)ccc1Cl)NC2=O` (stereo not drawn) [Compound I-2022] was 10 to 100 µM.
Take `O=C(Nc1cc(-c2ccc3nccn3n2)cc2c1[C@@H](c1cc(F)ccc1Cl)NC2=O)c1cc(F)cc(C(F)(F)F)c1` [Compound I-1331]: the IC50 fell in the range of 1 to 10 µM.
To `O=C(Nc1cc(-c2ccc3nnnn3c2)cc2c1[C@H](c1cc(F)ccc1Cl)NC2=O)c1cc(F)cc(C(F)(F)F)c1` [Compound I-1453] belongs no more than 0.1 µM; to `Cc1ccccc1C1NC(=O)c2c(C(N)=O)ccc(NC(=O)c3csc4ccccc34)c21` (stereo not drawn) [Compound I-149, 7-(Benzo[b]thiophene-3-carboxamido)-3-oxo-1-(o-tolyl)isoindoline-4-carboxamide], no more than 0.1 µM.
To `O=C(Nc1cc(CS(=O)(=O)c2ccccc2)cc2c1[C@H](c1cc(F)ccc1Cl)NC2=O)c1cc(F)cc(C(F)(F)F)c1` [Compound I-1591] belongs no more than 0.1 µM; to `CC(=O)Nc1cc(NC(=O)c2cc(F)cc(C(F)(F)F)c2)c2c(c1)C(=O)N[C@@H]2c1cc(F)ccc1Cl` [Compound I-462], 1 to 10 µM; to `CN(C)c1ncc(-c2cc(NC(=O)c3cc(F)cc(C(F)(F)F)c3)c3c(c2)C(=O)NC3c2cc(F)ccc2Cl)cn1` (stereo not drawn) [Compound I-1222], no more than 0.1 µM.
`O=C(Nc1cc(CS(=O)(=O)c2ccncc2)cc2c1C(c1cc(F)ccc1Cl)NC2=O)c1cc(F)cc(C(F)(F)F)c1` (stereo not drawn) [Compound I-1495] displayed an IC50 of no more than 0.1 µM.
The compound `N#Cc1nccn1Cc1cc(NC(=O)c2cc(F)cc(C(F)(F)F)c2)c2c(c1)C(=O)NC2c1cc(F)ccc1Cl` (stereo not drawn) [Compound I-1557] showed a 50% inhibitory concentration (IC50) of no more than 0.1 µM.
For the compound `CC(C)(O)c1cc(NC(=O)c2cc(F)cc(Cl)c2)c2c(c1)C(=O)N[C@@H]2c1cc(F)ccc1Cl` [Compound I-299], the IC50 was in the range of 10 to 100 µM.
Consider `O=C1NC(c2cc(F)ccc2Cl)c2c(NC(=O)N3CCCCC3c3ccccc3)cc(Br)cc21` (stereo not drawn) [Compound I-772], for which the IC50 is 1 to 10 µM.
The value for `O=C1NC(c2cc(F)ccc2Cl)c2c(NCC3CCCCC3)cc(Br)cc21` (stereo not drawn) [Compound I-1726] was 10 to 100 µM.
The value for `O=C(Nc1cc(N[C@H]2C[C@H](O)C2)cc2c1C(c1cc(F)ccc1Cl)NC2=O)c1cc(F)cc(C(F)(F)F)c1` (single isomer, unassigned) [Compound I-609] was no more than 0.1 µM.
The value for `O=C(Nc1cc(-c2ccn3nncc3c2)cc2c1C(c1cc(F)ccc1Cl)NC2=O)c1cc(F)cc(C(F)(F)F)c1` (stereo not drawn) [Compound I-1670] was no more than 0.1 µM.
`O=C(Nc1cccc2c1C(CO)NC2=O)c1cc(F)cc(C(F)(F)F)c1` (stereo not drawn) [Compound I-1666] yielded a 50% inhibitory concentration (IC50) of 10 to 100 µM.
The value for `Cn1ncc(-c2cc(NC(=O)c3cc(F)cc(C(F)(F)F)c3)c3c(c2)C(=O)N[C@H]3c2cc(F)ccc2Cl)c1C#N` [Compound I-1795] was no more than 0.1 µM.
For `O=C1N[C@H](c2cc(F)ccc2Cl)c2c(NC(=O)N3C[C@@H](O)c4c3ccc(F)c4F)cccc21` (single isomer, unassigned) [Compound I-2311], the IC50 lay within 1 to 10 µM.
To `N#Cc1cnc2ccc(-c3cc(NC(=O)c4cc(F)cc(C(F)(F)F)c4)c4c(c3)C(=O)NC4c3cc(F)ccc3Cl)cn12` (stereo not drawn) [Compound I-1410] belongs no more than 0.1 µM; to `CC(=O)c1cc(NC(=O)c2cc(F)cc(C(F)(F)F)c2)c2c(c1)C(=O)NC2c1cc(F)ccc1Cl` (stereo not drawn) [Compound I-127, N-(6-Acetyl-3-(2-chloro-5-fluorophenyl)-1-oxoisoindolin-4-yl)-3-fluoro-5-(trifluoromethyl)benzamide], no more than 0.1 µM; to `O=C(Nc1cc(-c2cnc3ocnc3c2)cc2c1C(c1cc(F)ccc1Cl)NC2=O)c1cc(F)cc(C(F)(F)F)c1` (stereo not drawn) [Compound I-1544], no more than 0.1 µM.
`O=C(Nc1cc(Br)cc2c1C(c1cc(F)ccc1Cl)NC2=O)c1ccccc1C(F)F` (stereo not drawn) [Compound I-518]: the IC50 was 10 to 100 µM.
The value for `C[C@@]1(O)CN(C(=O)Nc2cccc3c2[C@@H](c2cc(F)ccc2Cl)NC3=O)c2ccccc21` (single isomer, unassigned) [Compound I-2204] was 1 to 10 µM; that for `O=C(Nc1cc(Br)cc2c1C(c1cccc(F)c1Cl)NC2=O)c1cc(F)cc(C(F)(F)F)c1` (stereo not drawn) [Compound I-672] was no more than 0.1 µM.
For the compound `O=C1NC(c2cc(F)ccc2Cl)c2c(/C=C/c3ccccc3)cccc21` (stereo not drawn) [Compound I-2106], the IC50 fell in the range of 10 to 100 µM.
The value for `Nc1cccc2c(=O)[nH]n(Cc3ccccc3)c12` [Compound I-103] was 10 to 100 µM.
To `COc1nccc(Oc2cc(NC(=O)c3cc(F)cc(C(F)(F)F)c3)c3c(c2)C(=O)NC3c2cc(F)ccc2Cl)n1` (stereo not drawn) [Compound I-1148] belongs no more than 0.1 µM.
The compound `CN(C)S(=O)(=O)n1nccc1-c1cc(NC(=O)c2cc(F)cc(C(F)(F)F)c2)c2c(c1)C(=O)N[C@H]2c1cc(F)ccc1Cl` [Compound I-1599] returned an IC50 of no more than 0.1 µM.
The value for `Cc1ccccc1[C@H]1NC(=O)c2nccc(NC(=O)N3CCc4c(F)cc(F)cc43)c21` [Compound I-230] was 10 to 100 µM; that for `O=C(Nc1cc(Br)cc2c1[C@@H](c1cc(F)ccc1Cl)NC2=O)N[C@]1(CC(F)(F)F)CCCOC1` (racemic) [Compound I-1961] was 10 to 100 µM; that for `O=C1NC(c2cc(F)ccc2Cl)c2c(OC3CCOc4ccccc43)cc(-c3ccc4ncnn4c3)cc21` (stereo not drawn) [Compound I-2043] was 10 to 100 µM.
To `CC(C)(C#N)n1cc(-c2cc(NC(=O)N3C[C@](O)(C(F)(F)F)c4cc(F)ccc43)c3c(c2)C(=O)N[C@@H]3c2cc(F)ccc2Cl)cn1` (single isomer, unassigned) [Compound I-2610] belongs 1 to 10 µM; to `Nc1cc(NC(=O)N2C[C@H](O)c3cc(F)ccc32)c2c(c1)C(=O)N[C@H]2c1cc(F)ccc1Cl` (single isomer, unassigned) [Compound I-2413], 10 to 100 µM.
To `N#C/N=C(\Nc1ccc(F)cc1C(F)(F)F)Nc1cc(Br)cc2c1C(c1cc(F)ccc1Cl)NC2=O` (stereo not drawn) [Compound I-1502] belongs 1 to 10 µM; to `Cn1cc(Oc2cc(NC(=O)c3cc(F)cc(C(F)(F)F)c3)c3c(c2)C(=O)NC3c2cc(F)ccc2Cl)cn1` (stereo not drawn) [Compound I-1120], 1 to 10 µM; to `O=C(Nc1cc(Br)cc2c1C(c1cc(F)ccc1Cl)NC2=O)c1cc(F)cc(Cl)c1O` (stereo not drawn) [Compound I-845], 0.5 to 1 µM.
For `O=C(Nc1cccc2c1C(c1ccc(C3CC3)cc1Cl)NC2=O)c1cc(F)cc(C(F)(F)F)c1` (stereo not drawn) [Compound I-424], the concentration for half-maximal inhibition (IC50) lay in the range of 1 to 10 µM.
To `O=C(Nc1cccc2c1C(c1cc(F)ccc1Cl)NC2=O)c1coc2c1COC2` (stereo not drawn) [Compound I-2265] belongs 10 to 100 µM; to `O=C1N[C@H](c2cc(F)ccc2Cl)c2c(NC(=O)[C@H]3CCCNC3)cc(-c3ccc4ncnn4c3)cc21` (racemic) [Compound I-1848], 10 to 100 µM.
The value for `O=C(Nc1cc(C2COC2)cc2c1[C@@H](c1cc(F)ccc1Cl)NC2=O)c1cc(F)cc(C(F)(F)F)c1` [Compound I-589] was no more than 0.1 µM; that for `C[C@]1(O)CN(C(=O)Nc2cccc3c2[C@@H](c2cc(F)ccc2Cl)NC3=O)c2ccccc21` (single isomer, unassigned) [Compound I-2203] was 1 to 10 µM; that for `Cc1ccccc1C1NC(=O)c2cccc(NC(=O)c3cnc(OCC(C)C)c(F)c3)c21` (stereo not drawn) [Compound I-111] was 10 to 100 µM.
The value for `O=C(Nc1cccc2c1C(CC1CC=CC1)NC2=O)c1cc(F)cc(C(F)(F)F)c1` (stereo not drawn) [Compound I-2322] was 10 to 100 µM.
`O=C1N[C@H](c2cc(F)ccc2Cl)c2c(NC(=O)N3C[C@@](O)(C(F)(F)F)c4cc(F)ccc43)ccc(Cl)c21` (single isomer, unassigned) [Compound I-2620] displayed a 50% inhibitory concentration (IC50) of 1 to 10 µM.
The value for `N#CCc1cc(NC(=O)N2C[C@@](O)(C(F)(F)F)c3ccccc32)c2c(c1)C(=O)N[C@@H]2c1cc(F)ccc1Cl` (single isomer, unassigned) [Compound I-2603] was 1 to 10 µM.
To `O=C1N[C@H](c2cc(F)ccc2Cl)c2c(NC(=O)[C@H]3CCC[C@@H](OC(F)(F)F)C3)cccc21` (single isomer, unassigned) [Compound I-2217] belongs 10 to 100 µM; to `O=C1N[C@@H](c2cc(F)ccc2Cl)c2c(NC(=O)N3C[C@](O)(C(F)(F)F)c4cc(F)ccc43)cc(N3CCOC3=O)cc21` (single isomer, unassigned) [Compound I-2676], 10 to 100 µM; to `O=C(Nc1cc(Cn2cccn2)cc2c1C(c1cc(F)ccc1Cl)NC2=O)c1cc(F)cc(C(F)(F)F)c1` (stereo not drawn) [Compound I-1497], no more than 0.1 µM.
The value for `N#Cc1ccc2c(c1)CCN2c1cc(NC(=O)c2cc(F)cc(C(F)(F)F)c2)c2c(c1)C(=O)NC2c1cc(F)ccc1Cl` (stereo not drawn) [Compound I-1263] was no more than 0.1 µM; that for `CC1(Cc2cc(NC(=O)N3C[C@](O)(C(F)(F)F)c4cc(F)ccc43)c3c(c2)C(=O)N[C@H]3c2cc(F)ccc2Cl)COC1` (single isomer, unassigned) [Compound I-2659] was 1 to 10 µM.

The record behind these values is US12581252B2, “Substituted pyrrolo[3,4-b]pyridines as PI3K-α inhibitors” (Relay Therapeutics, Inc., priority 2020, dated 2026).
